Experimental data reported in PMC12100716 (2025).

Tests used:
Assay in all cases: PELDOR (EPR) distance distributions
[1] = system: C30C47 (RNA, aptamer, Çm (rigid nitroxide spin-label cytidine analogue) at 30 and 47) GGACGACUGAACCGAAAGGUUCUUGGCUGCUUCGGCAGAGGUACGUCC; conditions: 130 mM glutamate buffer, pH 7.5; frozen solution; qualitative; small fraction of free aptamer remains
[2] = system: C12C47 (RNA, aptamer, Çm (rigid nitroxide spin-label cytidine analogue) at 12 and 47) GGACGACUGAACCGAAAGGUUCUUGGCUGCUUCGGCAGAGGUACGUCC; conditions: 130 mM glutamate buffer, pH 7.5; frozen solution; qualitative
[3] = system: C12C30 (RNA, aptamer, Çm (rigid nitroxide spin-label cytidine analogue) at 12 and 30) GGACGACUGAACCGAAAGGUUCUUGGCUGCUUCGGCAGAGGUACGUCC; conditions: 130 mM glutamate buffer, pH 7.5; frozen solution; qualitative

Measured: binding

CN(C)c1ccc2c(-c3ccc(C(=O)O)cc3C(=O)[O-])c3ccc(=[N+](C)C)cc-3oc2c1
yes: all assays above
